This passage reports IC50, DC50 and Dmax results from patent publication US20250214991A1 (Oncopia Therapeutics, Inc. d/b/a/ SK Life Science Labs, priority 2022, published 2025).

pIC50: −log10 of the molar value.

One test has as its target CRBN/DDB1 (Homo sapiens (Human), UniProt Q96SW2). The test is described as follows: IC50 measurements for binding to CRBN/DDB1 (HTRF). Conditions: His tagged CRBN+DDB, Cy5-labeled Thalidomide probe, one hour. Summed up:
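HTRF competition binding with 2 nM His-tagged CRBN-DDB1 complex, 60 nM Cy5-thalidomide probe and 0.4 nM anti-His Tb cryptate in 50 mM HEPES pH 7.5, 1 mM TCEP, 0.01% Brij-35, 50 mM NaCl, 0.1% BSA. Read after 1 h at room temperature; IC50 from four-parameter dose-response fit.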
Background: Time-resolved FRET reads energy transfer from a long-lived donor to a nearby acceptor.

A further test concerns the target IKZF1 (Homo sapiens (Human), UniProt Q13422+Q96SW2). As to the kind of experiment: In vitro IKZF1 HiBit Assay (HEK293T Flp-in-HiBiT-IKZF1 stable cell line). The class given is cell-based. Particulars: HEK293T Flp-in-HiBiT-IKZF1 stable cell line, 6 hrs incubation; for DC50: read-out: IKZF1 HiBit DC50; for Dmax: HEK-293T, read-out: IKZF1 HiBit Dmax (%). A digest of the protocol: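 HEK293T Flp-in cells carrying N-terminal HiBiT-tagged IKZF1 were exposed to compound (0.1% DMSO) for 6 h at 3000 cells/well. HiBiT luminescence was read after lytic LgBiT detection. DC50 and Dmax were taken from DMSO-normalized dose-response curves.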
(In general: HiBiT is a short tag that completes a luciferase, so light tracks the accessible tagged protein.)

In a further test the target is IKZF2 (Homo sapiens (Human), UniProt Q96SW2+Q9UKS7). As to the kind of experiment: In vitro IKZF2 HiBit Assay (HEK293T Flp-in-HiBiT cells). The class given is cell-based. Conditions: HEK293T Flp-in-HiBiT cells, 6 hrs incubation; for DC50: read-out: IKZF2 HiBit DC50; for Dmax: HEK-293T, read-out: IKZF2 HiBit Dmax (%). Summed up: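 HEK293T Flp-in cells carrying an endogenous N-terminal HiBiT tag on IKZF2 were exposed to compound for 6 h at 0.1% DMSO. The dilution series was 11 doses at 3-fold, diluted from 1 mM. Nano-Glo HiBiT lytic luminescence, normalized to DMSO, gave DC50 for 50% degradation and Dmax across the concentration range, both reported in letter bins.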
Chain of IKZF2 (Q9UKS7 whole entry): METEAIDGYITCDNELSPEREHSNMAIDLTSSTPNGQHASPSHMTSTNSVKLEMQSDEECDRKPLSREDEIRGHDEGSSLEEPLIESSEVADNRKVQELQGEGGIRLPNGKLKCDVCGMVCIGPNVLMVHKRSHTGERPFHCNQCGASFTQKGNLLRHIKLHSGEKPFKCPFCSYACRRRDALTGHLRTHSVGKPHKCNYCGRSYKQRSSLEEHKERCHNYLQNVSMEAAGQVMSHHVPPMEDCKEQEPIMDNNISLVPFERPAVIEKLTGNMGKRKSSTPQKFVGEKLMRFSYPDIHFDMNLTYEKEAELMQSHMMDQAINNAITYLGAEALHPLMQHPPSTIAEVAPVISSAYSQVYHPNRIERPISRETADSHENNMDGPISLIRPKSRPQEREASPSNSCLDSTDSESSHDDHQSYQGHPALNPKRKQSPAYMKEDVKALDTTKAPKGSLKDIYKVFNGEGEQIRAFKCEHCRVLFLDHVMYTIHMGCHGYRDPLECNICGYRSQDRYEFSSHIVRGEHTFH
Chain of IKZF2 (Q96SW2 whole entry): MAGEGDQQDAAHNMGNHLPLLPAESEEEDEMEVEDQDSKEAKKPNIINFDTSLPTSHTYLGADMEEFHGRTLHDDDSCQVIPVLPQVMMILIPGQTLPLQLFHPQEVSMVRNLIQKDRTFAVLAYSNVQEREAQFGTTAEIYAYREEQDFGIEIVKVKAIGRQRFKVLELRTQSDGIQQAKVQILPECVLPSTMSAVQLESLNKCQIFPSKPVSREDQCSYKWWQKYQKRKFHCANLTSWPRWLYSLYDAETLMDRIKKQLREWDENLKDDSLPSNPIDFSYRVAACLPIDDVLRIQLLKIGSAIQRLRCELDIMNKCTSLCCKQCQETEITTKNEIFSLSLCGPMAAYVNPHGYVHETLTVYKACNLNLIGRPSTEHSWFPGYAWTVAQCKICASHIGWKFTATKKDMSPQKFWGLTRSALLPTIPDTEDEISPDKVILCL
Chain of IKZF2 (Q16531 2-1140 partner): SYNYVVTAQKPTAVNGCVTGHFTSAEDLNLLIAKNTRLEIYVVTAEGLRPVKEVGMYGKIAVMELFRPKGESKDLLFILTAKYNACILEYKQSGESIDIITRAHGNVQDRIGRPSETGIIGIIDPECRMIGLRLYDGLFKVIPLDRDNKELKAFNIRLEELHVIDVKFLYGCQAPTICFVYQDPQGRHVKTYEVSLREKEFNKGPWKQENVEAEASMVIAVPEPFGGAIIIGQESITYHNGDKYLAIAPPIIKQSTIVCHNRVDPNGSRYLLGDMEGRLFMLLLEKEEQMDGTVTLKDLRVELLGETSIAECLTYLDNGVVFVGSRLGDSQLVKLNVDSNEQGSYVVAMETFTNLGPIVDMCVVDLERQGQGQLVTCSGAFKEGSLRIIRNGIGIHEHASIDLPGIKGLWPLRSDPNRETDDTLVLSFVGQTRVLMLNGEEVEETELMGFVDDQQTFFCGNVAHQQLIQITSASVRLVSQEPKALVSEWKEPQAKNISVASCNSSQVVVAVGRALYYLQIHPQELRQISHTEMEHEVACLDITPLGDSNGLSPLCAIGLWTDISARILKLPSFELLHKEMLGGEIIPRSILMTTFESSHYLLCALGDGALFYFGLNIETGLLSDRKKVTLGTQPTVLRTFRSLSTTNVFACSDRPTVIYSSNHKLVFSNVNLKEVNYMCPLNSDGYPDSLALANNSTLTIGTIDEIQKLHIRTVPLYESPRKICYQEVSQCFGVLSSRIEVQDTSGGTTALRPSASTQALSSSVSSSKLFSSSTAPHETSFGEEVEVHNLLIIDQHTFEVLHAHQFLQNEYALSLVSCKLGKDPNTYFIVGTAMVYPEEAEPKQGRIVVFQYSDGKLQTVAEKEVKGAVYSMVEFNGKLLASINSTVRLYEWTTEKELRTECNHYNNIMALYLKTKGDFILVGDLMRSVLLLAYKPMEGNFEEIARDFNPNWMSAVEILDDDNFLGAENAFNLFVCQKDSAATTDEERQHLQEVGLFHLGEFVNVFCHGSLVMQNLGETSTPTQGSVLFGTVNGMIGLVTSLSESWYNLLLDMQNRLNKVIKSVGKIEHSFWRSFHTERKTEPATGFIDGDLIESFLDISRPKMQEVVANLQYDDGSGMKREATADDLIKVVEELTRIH

Chain of IKZF1 (Q13422 whole entry): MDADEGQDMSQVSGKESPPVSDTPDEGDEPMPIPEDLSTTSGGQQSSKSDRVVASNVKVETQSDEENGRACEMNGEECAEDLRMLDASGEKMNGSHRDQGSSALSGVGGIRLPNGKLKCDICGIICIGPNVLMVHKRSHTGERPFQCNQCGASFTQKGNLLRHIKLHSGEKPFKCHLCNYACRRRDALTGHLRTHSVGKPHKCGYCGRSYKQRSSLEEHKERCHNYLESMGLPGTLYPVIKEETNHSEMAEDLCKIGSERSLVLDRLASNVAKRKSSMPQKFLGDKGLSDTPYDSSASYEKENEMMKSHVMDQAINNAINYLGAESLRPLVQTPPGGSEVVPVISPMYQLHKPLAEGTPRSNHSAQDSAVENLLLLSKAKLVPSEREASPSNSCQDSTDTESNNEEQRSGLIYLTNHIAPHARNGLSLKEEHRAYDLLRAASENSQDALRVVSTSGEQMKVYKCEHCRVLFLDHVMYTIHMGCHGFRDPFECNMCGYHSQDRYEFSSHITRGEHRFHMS
Chain of IKZF1 (Q96SW2 whole entry): as the sequence (Q96SW2 whole entry) above
Chain of IKZF1 (Q16531 2-1140 partner): as the sequence (Q16531 2-1140 partner) above
Chain of CRBN/DDB1 (Q96SW2 whole entry, species assumed): as the sequence (Q96SW2 whole entry) above
Chain of CRBN/DDB1 (Q16531 whole entry partner, species assumed): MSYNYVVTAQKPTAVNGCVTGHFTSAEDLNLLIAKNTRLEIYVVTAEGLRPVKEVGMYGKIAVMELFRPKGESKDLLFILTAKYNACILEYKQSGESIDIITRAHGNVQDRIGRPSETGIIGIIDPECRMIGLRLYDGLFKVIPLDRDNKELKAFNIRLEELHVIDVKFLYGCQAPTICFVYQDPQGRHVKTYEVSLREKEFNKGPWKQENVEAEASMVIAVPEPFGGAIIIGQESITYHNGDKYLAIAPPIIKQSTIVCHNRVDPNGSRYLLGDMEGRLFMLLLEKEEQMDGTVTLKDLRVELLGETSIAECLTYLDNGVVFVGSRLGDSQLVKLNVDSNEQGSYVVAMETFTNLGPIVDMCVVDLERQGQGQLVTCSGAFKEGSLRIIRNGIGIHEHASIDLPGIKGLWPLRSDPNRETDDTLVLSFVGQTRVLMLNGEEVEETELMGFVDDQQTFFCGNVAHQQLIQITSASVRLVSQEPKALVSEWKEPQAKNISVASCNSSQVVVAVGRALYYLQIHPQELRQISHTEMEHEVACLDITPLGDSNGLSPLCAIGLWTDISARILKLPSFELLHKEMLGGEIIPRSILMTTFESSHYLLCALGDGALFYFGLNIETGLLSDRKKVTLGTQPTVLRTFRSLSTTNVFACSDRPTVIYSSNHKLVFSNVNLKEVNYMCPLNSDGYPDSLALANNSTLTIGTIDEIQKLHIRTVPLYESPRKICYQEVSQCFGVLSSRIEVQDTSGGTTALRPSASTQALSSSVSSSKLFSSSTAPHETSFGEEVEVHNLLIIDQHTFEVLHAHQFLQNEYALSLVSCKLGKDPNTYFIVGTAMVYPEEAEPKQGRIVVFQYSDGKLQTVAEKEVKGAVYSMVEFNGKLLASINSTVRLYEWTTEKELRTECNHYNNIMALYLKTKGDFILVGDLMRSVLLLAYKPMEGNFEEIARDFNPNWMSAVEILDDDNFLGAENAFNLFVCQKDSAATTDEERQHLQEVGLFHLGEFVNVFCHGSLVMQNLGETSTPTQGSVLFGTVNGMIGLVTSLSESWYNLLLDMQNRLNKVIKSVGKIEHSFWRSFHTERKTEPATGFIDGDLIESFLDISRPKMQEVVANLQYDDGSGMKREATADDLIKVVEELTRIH

With `O=C1CCC(N2Cc3cc(-c4cc(CN5CCCC5)c5ccn(C6CCCC6)c5n4)ccc3C2=O)C(=O)N1` (stereo not shown) [Example 154, 3-(5-(1-cyclopentyl-4-(pyrrolidin-1-ylmethyl)-1H-pyrrolo[2,3-b]pyridin-6-yl)-1-oxoisoindolin-2-yl) piperidine-2,6-dione], the negative logarithm of the IC50 (pIC50) at CRBN/DDB1 was 6.00 to 6.30. In addition, the results for the DC50 on IKZF1 and at IKZF2 were over 10000 nM and 1 to 10 nM, respectively. In addition, the figures for the Dmax at IKZF1 and at IKZF2 were under 20% and 60 to 80%, respectively.
With `O=C1CCC(N2Cc3cc(-c4cc(CN5CCC(CO)C5)c5ccn(C6CC6)c5n4)ccc3C2=O)C(=O)N1` (stereo not shown) [Example 155, 3-(5-(1-cyclopropyl-4-((3-(hydroxymethyl)pyrrolidin-1-yl)methyl)-1H-pyrrolo[2,3-b]pyridin-6-yl)-1-oxoisoindolin-2-yl) piperidine-2,6-dione], the pIC50 on CRBN/DDB1 is 6.30 to 7.00. In addition, on IKZF1, the DC50 is 10 to 100 nM and the Dmax was in the range of 20 to 40%. Besides, at IKZF2, the DC50 lay in the range of 1 to 10 nM and the Dmax was over 80%.
`O=C1CCC(N2Cc3cc(-c4cc(CN5CCC5)c5[nH]ccc5n4)ccc3C2=O)C(=O)N1` (stereo not shown) [Example 156, 3-(5-(7-(azetidin-1-ylmethyl)-1H-pyrrolo[3,2-b]pyridin-5-yl)-1-oxoisoindolin-2-yl) piperidine-2,6-dione]: the pIC50 at CRBN/DDB1 was 5.30 to 6.00. On IKZF1, the DC50 lay in the range of 10 to 100 nM and the Dmax fell in the range of 20 to 40%. For the same compound, at IKZF2, the DC50 was in the range of 1 to 10 nM and the Dmax was over 80%.
The like results for `O=C1CCC(N2Cc3cc(-c4cc(CN5CCC(F)C5)c5ccn(C6COC6)c5n4)ccc3C2=O)C(=O)N1` (stereo not shown) [Example 157, 3-(5-(4-((3-fluoropyrrolidin-1-yl)methyl)-1-(oxetan-3-yl)-1H-pyrrolo[2,3-b]pyridin-6-yl)-1-oxoisoindolin-2-yl) piperidine-2,6-dione] were, in that order, 6.00 to 6.30, over 10000 nM, under 20%, 1 to 10 nM and over 80%.
In the same order, the values of `O=C1CCC(N2Cc3cc(-c4cc(CN5CCC(O)CC5)c5ccn(C6CC6)c5n4)ccc3C2=O)C(=O)N1` (stereo not shown) [Example 159, 3-(5-(1-cyclopropyl-4-((4-hydroxypiperidin-1-yl)methyl)-1H-pyrrolo[2,3-b]pyridin-6-yl)-1-oxoisoindolin-2-yl) piperidine-2,6-dione] are 6.30 to 7.00, 10 to 100 nM, 20 to 40%, 1 to 10 nM and 60 to 80%.
With `O=C1CCC(N2Cc3cc(-c4cc(CN5CC(O)C5)c5ccn(C6COC6)c5n4)ccc3C2=O)C(=O)N1` (stereo not shown) [Example 160, 3-(5-(4-((3-hydroxyazetidin-1-yl)methyl)-1-(oxetan-3-yl)-1H-pyrrolo[2,3-b]pyridin-6-yl)-1-oxoisoindolin-2-yl) piperidine-2,6-dione], the pIC50 at CRBN/DDB1 was over 7.00. In addition, the DC50 at IKZF1 is over 10000 nM; on IKZF2 it was 10 to 100 nM. Moreover, the Dmax at IKZF1 is under 20%; on IKZF2, 40 to 60%.
For `O=C1CCC(N2Cc3cc(-c4cc(CN5CC(CO)C5)c5ccn(C6COC6)c5n4)ccc3C2=O)C(=O)N1` (stereo not shown) [Example 165, 3-(5-(4-((3-(hydroxymethyl)azetidin-1-yl)methyl)-1-(oxetan-3-yl)-1H-pyrrolo[2,3-b]pyridin-6-yl)-1-oxoisoindolin-2-yl) piperidine-2,6-dione], the pIC50 at CRBN/DDB1 was 6.30 to 7.00. Also, at IKZF1, the DC50 is over 10000 nM and the Dmax is under 20%. For the same compound, on IKZF2, the DC50 was in the range of 10 to 100 nM and the Dmax lay within 60 to 80%.
In the same order, the values of `O=C1CCC(N2Cc3cc(-c4cc(CN5CCCC5)c5ccn(C6CCCCC6)c5n4)ccc3C2=O)C(=O)N1` (stereo not shown) [Example 166, 3-(5-(1-cyclohexyl-4-(pyrrolidin-1-ylmethyl)-1H-pyrrolo[2,3-b]pyridin-6-yl)-1-oxoisoindolin-2-yl) piperidine-2,6-dione] are 6.30 to 7.00, over 10000 nM, under 20%, 1 to 10 nM and 40 to 60%.
The like results for `CN(C)C(=O)CC1CCN(Cc2cc(-c3ccc4c(c3)CN(C3CCC(=O)NC3=O)C4=O)nc3[nH]ccc23)C1` (stereo not shown) [Example 167, 2-(1-((6-(2-(2,6-dioxopiperidin-3-yl)-1-oxoisoindolin-5-yl)-1H-pyrrolo[2,3-b]pyridin-4-yl)methyl)pyrrolidin-3-yl)-N,N-dimethylacetamide] were, in that order, 6.30 to 7.00, 100 to 1000 nM, 20 to 40%, 10 to 100 nM and 60 to 80%.
The like results for `O=C1CCC(N2Cc3cc(-c4cc(CN5CCCC5)c5ccn(C6CNC6)c5n4)ccc3C2=O)C(=O)N1` (stereo not shown) [Example 168, 3-(5-(1-(azetidin-3-yl)-4-(pyrrolidin-1-ylmethyl)-1H-pyrrolo[2,3-b]pyridin-6-yl)-1-oxoisoindolin-2-yl) piperidine-2,6-dione] were, in that order, 6.00 to 6.30, 1000 to 10000 nM, 20 to 40%, 100 to 1000 nM and 60 to 80%.
At CRBN/DDB1, `CN1CC(n2ccc3c(CN4CCCC4)cc(-c4ccc5c(c4)CN(C4CCC(=O)NC4=O)C5=O)nc32)C1` (stereo not shown) [Example 169, 3-(5-(1-(1-methylazetidin-3-yl)-4-(pyrrolidin-1-ylmethyl)-1H-pyrrolo[2,3-b]pyridin-6-yl)-1-oxoisoindolin-2-yl) piperidine-2,6-dione] showed a negative logarithm of the IC50 (pIC50) of over 7.00. In addition, on IKZF1, the DC50 lay within 10 to 100 nM and the Dmax fell in the range of 40 to 60%. In addition, at IKZF2, the DC50 was 1 to 10 nM and the Dmax was over 80%.
As for `O=C1CCC(N2Cc3cc(-c4cc(CN5CCCC5)c5ccn(C6CCOCC6)c5n4)ccc3C2=O)C(=O)N1` (stereo not shown) [Example 171, 3-(1-oxo-5-(4-(pyrrolidin-1-ylmethyl)-1-(tetrahydro-2H-pyran-4-yl)-1H-pyrrolo[2,3-b]pyridin-6-yl)isoindolin-2-yl) piperidine-2,6-dione], the pIC50 at CRBN/DDB1 is 6.30 to 7.00. Further, the results for the DC50 on IKZF1 and on IKZF2 were over 10000 nM and 1 to 10 nM, respectively. Moreover, the Dmax is under 20% on IKZF1 and 60 to 80% at IKZF2.
In the same order, the values of `CC(C)n1ccc2nc(-c3ccc4c(c3)CN(C3CCC(=O)NC3=O)C4=O)cc(CN3CCCC3)c21` (stereo not shown) [Example 172, 3-(5-(1-isopropyl-7-(pyrrolidin-1-ylmethyl)-1H-pyrrolo[3,2-b]pyridin-5-yl)-1-oxoisoindolin-2-yl) piperidine-2,6-dione] are 5.30 to 6.00, 100 to 1000 nM, 10 to 100 nM, 20 to 40% and 60 to 80%.
The like results for `O=C1CCC(N2Cc3cc(-c4cc(CN5CCCC5)c5c(ccn5CCCO)n4)ccc3C2=O)C(=O)N1` (stereo not shown) [Example 173, 3-(5-(1-(3-hydroxypropyl)-7-(pyrrolidin-1-ylmethyl)-1H-pyrrolo[3,2-b]pyridin-5-yl)-1-oxoisoindolin-2-yl) piperidine-2,6-dione] were, in that order, 5.30 to 6.00, 100 to 1000 nM, 10 to 100 nM, 20 to 40% and 60 to 80%.
At CRBN/DDB1, `O=C1CCC(N2Cc3cc(-c4cc(CN5CCCC5)c5c(ccn5C5CC5)n4)ccc3C2=O)C(=O)N1` (stereo not shown) [Example 174, 3-(5-(1-cyclopropyl-7-(pyrrolidin-1-ylmethyl)-1H-pyrrolo[3,2-b]pyridin-5-yl)-1-oxoisoindolin-2-yl) piperidine-2,6-dione] had a pIC50 of 6.00 to 6.30. Also, on IKZF1, the DC50 was 10 to 100 nM and the Dmax is 20 to 40%. Besides, on IKZF2, the DC50 lay in the range of 1 to 10 nM and the Dmax was 60 to 80%.
On to `O=C1CCC(N2Cc3cc(-c4cc(CN5CCCC5)c5c(ccn5CCO)n4)ccc3C2=O)C(=O)N1` (stereo not shown) [Example 175, 3-(5-(1-(2-hydroxyethyl)-7-(pyrrolidin-1-ylmethyl)-1H-pyrrolo[3,2-b]pyridin-5-yl)-1-oxoisoindolin-2-yl) piperidine-2,6-dione], for which the pIC50 on CRBN/DDB1 is 5.30 to 6.00. For the same compound, at IKZF1, the DC50 was over 10000 nM and the Dmax is under 20%. At IKZF2, the DC50 fell in the range of 10 to 100 nM and the Dmax was in the range of 60 to 80%.
In the same order, the values of `CC(C)n1nc(N)c2nc(-c3ccc4c(c3)CN(C3CCC(=O)NC3=O)C4=O)cc(CN3CCCC3)c21` (stereo not shown) [Example 177, 3-(5-(3-amino-1-isopropyl-7-(pyrrolidin-1-ylmethyl)-1H-pyrazolo[4,3-b]pyridin-5-yl)-1-oxoisoindolin-2-yl) piperidine-2,6-dione] are 6.00 to 6.30, 10 to 100 nM, 20 to 40%, 1 to 10 nM and 60 to 80%.

For orientation: pIC50 means −log10 of the IC50, conventionally taken in molar units. Lower therefore signals a large IC50.
